≈ marks a conversion by molar mass, not a printed value. Where a SMILES comes first, the peptide text is derived from it.

The test system of assay [1] is Enterococcus faecalis ATCC 29212. To be noted: ATCC 29212, 24 h.
In assay [2] the test system is Listeria monocytogenes 10403 s. The conditions noted are these: 10403 s, 24 h.
In assay [3] the test system is all Gram-positive strains. In words: Mean MIC and therapeutic index, Gram-positive strains. Format: cell-based. To be noted: 5 Gram-positive strains of Table 3. As to the method:
(§1) The antimicrobial activity of the peptides was determined against both Gram-positive and -negative bacteria including 14 MDR P. aeruginosa clinical isolates from Bhumibol Adulyadej Hospital (Tables 1 and 3). The minimal inhibitory concentration (MIC) of each peptide was measured according to a modification of the National Committee for Clinical Laboratory Standards (NCCLS) broth microdilution method as previously described. Briefly, bacterial cells in mid-log phase were cultured in Müeller-Hinton broth (MHB) and then diluted to 10^7 CFU/ml. […] Plates were incubated at 37 °C for 24 h, and MICs were defined as the lowest concentration of peptide that prevented visible turbidity. Cultures without peptides and uninoculated MHB were employed as positive and negative controls, respectively. Colony count assays were performed to determine the minimal bactericidal concentrations (MBCs) for determination of time-killing activity. As previously described, a 50 μl aliquot from each non-turbid well identified in the MIC determination experiment was spread on agar plates.
(§2) To further evaluate the global activity of these peptides, the geometric mean (GM) MIC and the therapeutic index (TI) of each were calculated (Table 3). The TI, a widely used parameter to evaluate cell selectivity and specificity of antimicrobial agents, was calculated as the ratio of MHC (the concentration that causes 10% hemolysis) to the geometric mean of MICs[22]. Higher TIs indicated greater cell selectivity and specificity.

The subject of assay [4] is Escherichia coli ATCC 25922. The conditions noted are these: ATCC 25922, 24 h.
Assay [5] concerns all Gram-negative strains. Kind of assay: Mean MIC and therapeutic index, Gram-negative strains. Type of assay: cell-based. To be noted: 7 Gram-negative strains of Table 3. As to the method:
as §1, §2

For assay [6], the system named is Staphylococcus epidermidis ATCC 12228. To be noted: ATCC 12228, 24 h.
Assay [7] has as its system Escherichia coli O157:H7 MT strain. The conditions noted are these: E. coli O157:H7 MT strain; MHB, 37 °C, 24 h.
Assay [8] deals with Staphylococcus aureus ATCC 25923. To be noted: ATCC 25923, 24 h.
Assay [9] deals with Vibrio cholera O1 Inaba DMST 16261. To be noted: MHB, 37 °C, 24 h.
The subject of assay [10] is Pseudomonas aeruginosa ATCC 27853. To be noted: ATCC 27853, 24 h.
For assay [11], the system named is Gram-negative and -positive bacterial strains. In words: MIC against the panel of Gram-negative and -positive bacterial strains. Type of assay: cell-based. The conditions noted are these: 12 strains of Table 3; result in words.
Assay [12] deals with Salmonella Typhimurium ATCC 13311. To be noted: ATCC 13311, 24 h.
Assay [13] has as its system Acinetobacter baumannii MT strain. The conditions noted are these: MT strain, 24 h.

`CC[C@H](C)[C@H](NC(=O)[C@H](CCCNC(=N)N)NC(=O)[C@H](CCCCN)NC(=O)[C@H](C)NC(=O)[C@@H](NC(=O)[C@@H](N)CCCCN)[C@@H](C)CC)C(=O)N[C@@H](Cc1c[nH]c2ccccc12)C(=O)N[C@@H](CCCCN)C(=O)N[C@H](C(=O)N[C@@H](CC(C)C)C(=O)N[C@@H](CCCNC(=N)N)C(=O)N[C@@H](CCCNC(=N)N)C(=O)N[C@@H](CCCNC(=N)N)C(=O)N[C@@H](CC(C)C)C(=O)N[C@@H](Cc1ccccc1)C(=O)N[C@@H](CCCNC(=N)N)C(=O)N[C@@H](CCCNC(=N)N)C(=O)N[C@H](C(=O)N[C@@H](CCCCN)C(=O)N[C@@H](CCCCN)C(=O)N[C@H](C(=O)N[C@@H](C)C(=O)NCC(N)=O)C(C)C)C(C)C)[C@@H](C)CC` [P7A3] (H-KIAKRIWKILRRRLFRRVKKVAG-NH2; N-terminus assumed): the MIC (in general, the least concentration at which growth counts as inhibited) in assay [1] stood at 31.25 µg/mL (≈ 10.8 µM); in [2], 3.91 µg/mL (≈ 1.35 µM); in [4] it was 15.63 µg/mL (≈ 5.41 µM); in [6] it was 3.91 µg/mL (≈ 1.35 µM); in [7] it was 250 µg/mL (≈ 86.5 µM); in [8], 15.63 µg/mL (≈ 5.41 µM). The MIC in assay [9] amounted to 7.81 µg/mL (≈ 2.7 µM). In addition, the “GM (Gr.+ strains): geometric mean of MIC values from all Gram-positive strains” value (“GM (Gr.+ strains): geometric mean” below) in assay [3] was determined as 12.50 µg/mL. Besides, in assay [5], the “GM (Gr.− strains): geometric mean of MIC values from all Gram-negative strains” value (shortened to “GM (Gr.− strains): geometric mean”) was determined as 42.97 µg/mL.

With `CC[C@H](C)[C@H](NC(=O)[C@H](CCCNC(=N)N)NC(=O)[C@H](CCCCN)NC(=O)[C@H](C)NC(=O)[C@@H](NC(=O)[C@@H](N)CCCCN)[C@@H](C)CC)C(=O)N[C@@H](Cc1c[nH]c2ccccc12)C(=O)N[C@@H](CCCCN)C(=O)N[C@H](C(=O)N[C@@H](CC(C)C)C(=O)N[C@@H](CCCNC(=N)N)C(=O)N[C@@H](CCCNC(=N)N)C(N)=O)[C@@H](C)CC` [P7] (H-KIAKRIWKILRR-NH2; N-terminus assumed), the MIC in assay [1] was more than 250 µg/mL; in [2], 7.81 µg/mL (≈ 4.94 µM); in assay [4], 15.63 µg/mL (≈ 9.89 µM); in assay [10], 7.81 µg/mL (≈ 4.94 µM); in assay [6] it was 3.91 µg/mL (≈ 2.47 µM); in assay [12], 7.81 µg/mL (≈ 4.94 µM). Further, the MIC turned out to be 7.81 µg/mL (≈ 4.94 µM) in [13], 125 µg/mL (≈ 79.1 µM) in assay [7], 62.5 µg/mL (≈ 39.6 µM) in assay [8] and 31.25 µg/mL (≈ 19.8 µM) in assay [9]. For the same compound, the “GM (Gr.+ strains): geometric mean” value in assay [3] is 121.09 µg/mL. In [5], the “GM (Gr.− strains): geometric mean” value was found to be 28.46 µg/mL. Besides, the “antibacterial activity against tested microorganisms” value in assay [11] was “potent antibacterial activity”.

`CC[C@H](C)[C@H](NC(=O)[C@H](CCCNC(=N)N)NC(=O)[C@H](CCCCN)NC(=O)[C@H](C)NC(=O)[C@@H](NC(=O)[C@@H](N)CCCCN)[C@@H](C)CC)C(=O)N[C@@H](Cc1c[nH]c2ccccc12)C(=O)N[C@@H](CCCCN)C(=O)N[C@H](C(=O)N[C@@H](CC(C)C)C(=O)N[C@@H](CCCNC(=N)N)C(=O)N[C@@H](CCCNC(=N)N)C(=O)N[C@@H](CCCNC(=N)N)C(=O)N[C@@H](CC(C)C)C(N)=O)[C@@H](C)CC` [PA-14] (H-KIAKRIWKILRRRL-NH2; N-terminus assumed): the MIC in assay [1] was 125 µg/mL (≈ 67.6 µM); in assay [2], 1.95 µg/mL (≈ 1.05 µM); in assay [4] it was 15.63 µg/mL (≈ 8.45 µM); in assay [10] it was 3.91 µg/mL (≈ 2.11 µM); in [6], 3.91 µg/mL (≈ 2.11 µM); in [12], 1.95 µg/mL (≈ 1.05 µM). Besides, the MIC in assay [13] came to 3.91 µg/mL (≈ 2.11 µM); in [7], 62.5 µg/mL (≈ 33.8 µM); in assay [8] it was 15.63 µg/mL (≈ 8.45 µM); in assay [9], 7.81 µg/mL (≈ 4.22 µM). For the same compound, in assay [3], the “GM (Gr.+ strains): geometric mean” value was 30.86 µg/mL. Further, the “GM (Gr.− strains): geometric mean” value in [5] is 14.23 µg/mL.

Consider `CC[C@H](C)[C@H](NC(=O)[C@H](CCCNC(=N)N)NC(=O)[C@H](CCCCN)NC(=O)[C@H](C)NC(=O)[C@@H](NC(=O)[C@@H](N)CCCCN)[C@@H](C)CC)C(=O)N[C@@H](Cc1c[nH]c2ccccc12)C(=O)N[C@@H](CCCCN)C(=O)N[C@H](C(=O)N[C@@H](CC(C)C)C(=O)N[C@@H](CCCNC(=N)N)C(=O)N[C@@H](CCCNC(=N)N)C(=O)N[C@@H](CCCNC(=N)N)C(=O)N[C@@H](CC(C)C)C(=O)N[C@@H](Cc1ccccc1)C(N)=O)[C@@H](C)CC` [PA-15] (H-KIAKRIWKILRRRLF-NH2; N-terminus assumed), for which the MIC in assay [1] turned out to be 31.25 µg/mL (≈ 15.7 µM); in [2] it was 1.95 µg/mL (≈ 0.977 µM); in [10] it was 7.81 µg/mL (≈ 3.91 µM); in assay [12], 1.95 µg/mL (≈ 0.977 µM); in [7] it was 15.63 µg/mL (≈ 7.83 µM); in assay [8], 7.81 µg/mL (≈ 3.91 µM). Also, in [9], the MIC was 3.91 µg/mL (≈ 1.96 µM). The “GM (Gr.+ strains): geometric mean” value in assay [3] is 9.77 µg/mL. Moreover, the “GM (Gr.− strains): geometric mean” value in [5] was 7.54 µg/mL.

For `CC[C@H](C)[C@H](NC(=O)[C@H](CCCNC(=N)N)NC(=O)[C@H](CCCCN)NC(=O)[C@H](C)NC(=O)[C@@H](NC(=O)[C@@H](N)CCCCN)[C@@H](C)CC)C(=O)N[C@@H](Cc1c[nH]c2ccccc12)C(=O)N[C@@H](CCCCN)C(=O)N[C@H](C(=O)N[C@@H](CC(C)C)C(=O)N[C@@H](CCCNC(=N)N)C(=O)N[C@@H](CCCNC(=N)N)C(=O)N[C@@H](CCCNC(=N)N)C(=O)N[C@@H](CC(C)C)C(=O)N[C@@H](Cc1ccccc1)C(=O)N[C@@H](CCCNC(=N)N)C(N)=O)[C@@H](C)CC` [PA-16] (H-KIAKRIWKILRRRLFR-NH2; N-terminus assumed), the MIC in [1] turned out to be 15.63 µg/mL (≈ 7.26 µM); in [4], 7.81 µg/mL (≈ 3.63 µM); in assay [10], 7.81 µg/mL (≈ 3.63 µM); in assay [12], 1.95 µg/mL (≈ 0.906 µM); in [13], 7.81 µg/mL (≈ 3.63 µM); in assay [7], 62.5 µg/mL (≈ 29 µM). The MIC in assay [8] amounted to 7.81 µg/mL (≈ 3.63 µM); in [9], 3.91 µg/mL (≈ 1.82 µM). Further, in assay [3], the “GM (Gr.+ strains): geometric mean” value came out at 7.03 µg/mL. Further, in [5], the “GM (Gr.− strains): geometric mean” value amounted to 13.67 µg/mL.

For the compound `CC[C@H](C)[C@H](NC(=O)[C@H](CCCNC(=N)N)NC(=O)[C@H](CCCCN)NC(=O)[C@H](C)NC(=O)[C@@H](NC(=O)[C@@H](N)CCCCN)[C@@H](C)CC)C(=O)N[C@@H](Cc1c[nH]c2ccccc12)C(=O)N[C@@H](CCCCN)C(=O)N[C@H](C(=O)N[C@@H](CC(C)C)C(=O)N[C@@H](CCCNC(=N)N)C(=O)N[C@@H](CCCNC(=N)N)C(=O)N[C@@H](CCCNC(=N)N)C(=O)N[C@@H](CC(C)C)C(=O)N[C@@H](Cc1ccccc1)C(=O)N[C@@H](CCCNC(=N)N)C(=O)N[C@@H](CCCNC(=N)N)C(N)=O)[C@@H](C)CC` [PA-17] (H-KIAKRIWKILRRRLFRR-NH2; N-terminus assumed), the MIC was 31.25 µg/mL (≈ 13.5 µM) in [1]; 1.95 µg/mL (≈ 0.845 µM) in assay [2]; 15.63 µg/mL (≈ 6.77 µM) in assay [4]; 3.91 µg/mL (≈ 1.69 µM) in assay [6]; 3.91 µg/mL (≈ 1.69 µM) in [12]; 62.5 µg/mL (≈ 27.1 µM) in [7]. Besides, the results for the MIC in assay [8] and in assay [9] were 15.63 µg/mL (≈ 6.77 µM) and 7.81 µg/mL (≈ 3.38 µM), respectively. Moreover, the “GM (Gr.+ strains): geometric mean” value in assay [3] worked out at 12.11 µg/mL. Moreover, the “GM (Gr.− strains): geometric mean” value in assay [5] was 15.63 µg/mL.

For `CC[C@H](C)[C@H](NC(=O)[C@H](CCCNC(=N)N)NC(=O)[C@H](CCCCN)NC(=O)[C@H](C)NC(=O)[C@@H](NC(=O)[C@@H](N)CCCCN)[C@@H](C)CC)C(=O)N[C@@H](Cc1c[nH]c2ccccc12)C(=O)N[C@@H](CCCCN)C(=O)N[C@H](C(=O)N[C@@H](CC(C)C)C(=O)N[C@@H](CCCNC(=N)N)C(=O)N[C@@H](CCCNC(=N)N)C(=O)N[C@@H](CCCNC(=N)N)C(=O)N[C@@H](CC(C)C)C(=O)N[C@@H](Cc1ccccc1)C(=O)N[C@@H](CCCNC(=N)N)C(=O)N[C@@H](CCCNC(=N)N)C(=O)N[C@H](C(N)=O)C(C)C)[C@@H](C)CC` [PA-18] (H-KIAKRIWKILRRRLFRRV-NH2; N-terminus assumed), the MIC turned out to be 31.25 µg/mL (≈ 13 µM) in assay [1]; 1.95 µg/mL (≈ 0.81 µM) in assay [2]; 31.25 µg/mL (≈ 13 µM) in assay [4]; 3.91 µg/mL (≈ 1.62 µM) in [6]; 3.91 µg/mL (≈ 1.62 µM) in assay [12]; 15.63 µg/mL (≈ 6.49 µM) in assay [13]. Further, the MIC in assay [7] is 250 µg/mL (≈ 104 µM); in [8] it was 15.63 µg/mL (≈ 6.49 µM); in assay [9] it was 7.81 µg/mL (≈ 3.24 µM). For the same compound, the “GM (Gr.+ strains): geometric mean” value in [3] was found to be 12.11 µg/mL. Also, in assay [5], the “GM (Gr.− strains): geometric mean” value is 45.76 µg/mL.

Values taken from publication PMC7272617 (Scientific Reports, 2020).
